Structures can show the parent of a compound that is named as a salt.
What was measured:
[1] = Tissue analysis of drug content under FOCALSEAL-S gels on porcine heart; assay type: in vivo; conditions: lung tissue adjacent to gel-treated sites; pig, seven days
[2] = Amiodarone concentration in dog right atrium under FOCALSEAL-S hydrogels (Example 9); assay type: in vivo; conditions: right atrial appendage, right ventricle, left atrial appendage, left atrial free wall, distal lung
[3] = FOCALSEAL-L; FIG. 2A / FIG. 2B

concentration at 7 days [1]: ≤ 17000 ng/g
other tissue harvested showing a detectable level of amiodarone [2]: None
change in pH and modulus as concentration is increased [3]: decrease in pH and modulus
Compound: CCCCc1oc2ccccc2c1C(=O)c1cc(I)c(OCCN(CC)CC)c(I)c1 [amiodarone, Amiodarone hydrochloride]
